Series [1] has as its system L. amazonensis. In words: Chromatin condensation determination (Hoechst 33342/propidium iodide). The series is classed as cell-based, Leishmania amazonensis. The following applies: IC90, 24 h. As to the method:
The detection of condensed chromatin, was performed using the Vybrant™ Apoptosis Assay Kit #5, Hoechst 33342/Propidium Iodide (Invitrogen, Carlsbad, CA, USA). Parasites were incubated with the IC90 of the pure compounds for 24 h, then collected and centrifuged. The cell pellet was resuspended in RPMI, added to a black plate and incubated with the Hoechst 33342 and the propidium iodide. Then the plate was protected from light for 20 min at 4 °C. The EVOS FL Cell Imaging System (Invitrogen, ThermoFisher, Carlsbad, CA, USA) was used to observe the cells, using the DAPI (Hoechst) and RFP (PI) Light Cubes.

The nature of series [2]: Cytotoxicity assay (alamarBlue). The series is classed as cell-based, murine. To be noted: mouse, J774A.1 macrophage cell line; J774A.1, 24 h; read-out: Murine Macrophages CC50. As to the method: (§1) To perform the experiments, promastigotes of L. amazonensis (MHOM/BR/77/LTB0016) and L. donovani (MHOM/IN/90/GE1F8R) and epimastigote T. cruzi (Y strain) were employed. Leishmania species were cultured in Schneider’s medium (Sigma-Aldrich, Madrid, Spain) at 26 °C supplemented with 10% fetal bovine serum (VWR, Biowest, Nuaillé, France) as well as in RPMI 1640 medium (Gibco, Thermo Fisher, Madrid, Spain). Epimastigotes of T. cruzi were cultured in Liver Infusion Tryptose (LIT) medium supplemented with 10% fetal bovine serum at 26 °C. For the cytotoxicity assays, murine macrophage cell line J774A.1 (ATCC TIB-67) was maintained at 37 °C in a 5% CO2 atmosphere in RPMI 1640 medium supplemented with 10% fetal bovine serum.
(§2) The cytotoxicity was evaluated using a macrophage cell line J774A.1 in RPMI medium. Macrophages were plated and at 10^5 macrophages/well and, subsequently, serial dilution of samples were added to the plates. After 24 h of incubation cell viability was determined by the alamarBlue® [28].
(Alamar Blue is a resazurin reagent that responds to reducing activity.)

Series [3] has as its system T. cruzi. Description: Measurement of ATP (Cell Titer-Glo). The following applies: IC90, 24 h. The series is classed as cell-based, Trypanosoma cruzi.
Method: (§4) To determine the ATP level of the parasites, the Cell Titer-Glo® Luminescent Cell Viability Assay (Promega, Madison, WI, USA) was used following the manufacturer’s instructions after incubation of the parasites with the calculated IC90 of the tested withanolides for 24 h.
Series [4] relates to T. cruzi epimastigotes. In words: Trypanocidal capacity assay (alamarBlue), epimastigotes. The following applies: for IC50: epimastigote stage, read-out: T. cruzi IC50 (µM ± SD); for SI (CC50/IC50), T. cruzi: epimastigotes vs murine macrophages. It counts as cell-based, Trypanosoma cruzi. As to the method: as §1
For the evaluation against the epimastigote stage of T. cruzi, assays were performed following the same procedure mentioned in Section 3.5.1., modifying the density to 2 × 10^5 parasite/well and using LIT medium.

Series [5] deals with L. amazonensis. In words: Measurement of ATP (Cell Titer-Glo). The series is classed as cell-based, Leishmania amazonensis. The following applies: IC90, 24 h. In general terms: ATP-based viability assays read luminescence as a measure of living cells.
Method: as §4
In series [6] the test system is intracellular amastigote stage of L. amazonensis. In words: Amastigote activity assay (parasite rescue and transformation, alamarBlue). The series is classed as cell-based, Leishmania amazonensis. The following applies: for IC50: intracellular amastigote stage, read-out: L. amazonensis IC50 (µM ± SD); for SI (CC50/IC50), L. amazonensis amastigote: amastigotes vs murine macrophages; for fold more potent than the reference drug against L. amazonensis amastigotes: intracellular amastigote, vs miltefosine. As to the method:
(§3) Promastigote in logarithmic phase were used for plate preparation, and the in vitro antiprotozoal assay was performed in 96-well plates. The different fractions or compounds were serially diluted on the wells and 10^6 parasites/mL were finally added. The activity of the fraction was calculated by the alamarBlue® method. In addition, the active pure molecules were tested against the amastigote stage of L. amazonensis.
The amastigote activity was performed according to Jain et al.. After allowing the transformation of rescued amastigotes to promastigotes, the activity was evaluated by AlamarBlue method. After incubation, the fluorescence was measured in a Perkin Elmer EnSpire spectrofluorometer and fluorescence was measured at emission peak 585 nm.

Series [7] deals with L. amazonensis promastigotes. Description: Leishmanicidal activity assay (alamarBlue), promastigotes. It counts as cell-based, Leishmania amazonensis. To be noted: for IC50 / fold more potent than the reference drug against L. amazonensis: promastigote stage; for IC50: read-out: L. amazonensis IC50 (µM ± SD); for fold more potent than the reference drug against L. amazonensis: vs miltefosine; for SI (CC50/IC50), L. amazonensis: promastigotes vs murine macrophages. The method, then: as §1, §3

Series [8] has as its system L. donovani promastigotes. The description is as above. The series is classed as cell-based, Leishmania donovani. To be noted: for IC50: promastigote stage; for SI (CC50/IC50), L. donovani: promastigotes vs murine macrophages. As to the method:
as §1, §3

In series [9] the test system is murine macrophage cell line J774A.1. Description: Cytotoxicity assay (alamarBlue). It counts as cell-based. As to the method:
as §1, §2

“And” between values parts separate entries of the source, which are not always exact repeats. Identical values can stand only once. Like-named read-outs stand apart in the source and are kept apart here.

As usually defined, the CC50 is the concentration at which the toxic effect on the cells reaches its halfway point. As usually defined, the IC50 is the point on the concentration scale where inhibition reaches its midpoint. For `CC1=C(CO)C(=O)O[C@@H]([C@@H](C)[C@H]2CC[C@H]3[C@@H]4C[C@H]5O[C@]56[C@@H](O)C=CC(=O)[C@]6(C)[C@H]4CC[C@]23C)C1` [Compound 1, withaferin A], the propidium iodide staining entry in series [1] is “staining in red was observed”. The CC50 at 24 h in series [2] was 11900 ± 1080 nM. In addition, the ATP level entry in [3] is on record as “slight decrease”. The IC50 is 1.02 ± 0.1 µM in series [4] (Trypanosoma cruzi); 0.055 ± 0.009 µM in series [6] (Leishmania amazonensis); 0.83 ± 0.07 µM in series [7] (Leishmania amazonensis); 13.2 ± 1.16 µM in [8] (Leishmania donovani, read-out: L. donovani IC50 (µM ± SD)). For the same compound, the “fold more potent than benznidazole against T. cruzi epimastigotes” value in [4] is given as 6.8 fold. Also, the “SI (CC50/IC50), T. cruzi” value in series [4] stood at 11.69. Also, the “total ATP level” value in [5] is given as “strong decrease”. Besides, in series [6], the “SI (CC50/IC50), L. amazonensis amastigote” value amounted to 216.73. In addition, in series [6], the “fold more potent than the reference drug against L. amazonensis amastigotes” value amounted to 56 fold. Besides, the “fold more potent than the reference drug against L. amazonensis” value in series [7] came out at 7.8 fold. Also, the “SI (CC50/IC50), L. amazonensis” value in [7] amounted to 14.36. In [8], the “SI (CC50/IC50), L. donovani” value is listed as 0.91.
Regarding witharistatin [Compound 3], in series [9], half-maximal cytotoxicity (CC50) was put at 12300 ± 1160 nM. For the same compound, in series [4], the IC50 stood at 2.41 ± 0.11 µM and the “fold more potent than benznidazole against T. cruzi epimastigotes” value amounted to 2.9 fold. Besides, in [6], the “SI (CC50/IC50), L. amazonensis amastigote” value was 58.66; the IC50 was 0.209 ± 0.028 µM; the “fold more potent than the reference drug against L. amazonensis amastigotes” value was 14.9 fold. Moreover, in series [7], the “fold more potent than the reference drug against L. amazonensis” value is given as 2.3 fold and the IC50 is 2.82 ± 0.07 µM. Besides, the IC50 in series [8] (read-out: L. donovani IC50 (µM ± SD)) is 20.9 ± 1.33 µM.
Regarding `O=C(Cn1ccnc1[N+](=O)[O-])NCc1ccccc1` [Benznidazole], the CC50 at 24 h in series [2] is 104 µg/mL and 400 µM. In series [4], the “SI (CC50/IC50), T. cruzi” value worked out at 57.54.
On to `CCCCCCCCCCCCCCCCOP(=O)([O-])OCC[N+](C)(C)C` [Miltefosine, reference compound], for which the CC50 at 24 h in series [2] is 29.4 µg/mL and 72.2 µM. Besides, the IC50 in [6] (Leishmania amazonensis) is 3.12 ± 0.12 µM; in series [8] (Leishmania donovani, read-out: L. donovani IC50) it was 1.35 µg/mL. For the same compound, the “SI (CC50/IC50), L. amazonensis amastigote” value in series [6] came to 23.13. Moreover, the “SI (CC50/IC50), L. amazonensis” value in [7] came to 11.14. Moreover, in series [8], the “SI (CC50/IC50), L. donovani” value is reported as 21.81.

These data come from article PMC6963971, “Withanolides from Withania aristata as Antikinetoplastid Agents through Induction of Programmed Cell Death” (Pathogens, 2019).
